Values joined by “and” are separate entries in the source; they are usually repeats but may differ in a detail not shown here. Equal entries are not always repeated. Toxic doses and inconclusive results are not listed.

The assay deals with B6C3F1 mice, ip Sarcoma M5076, median survival T/C. In words: NCI In Vivo Anticancer Drug Screen. Data for tumor model Sarcoma M5076 (intraperitoneal) in B6C3F1 mice. To be noted: endpoint: median survival time, schedule: Q04DX004 (ip), higher = longer survival. The method in brief:
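Mice carrying the transplanted tumour received compound treatment. Survival was recorded, and each value is the treated-group measurement divided by that of the vehicle-dosed control group.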

Setting [1] is: dose: 18.75 mg/kg/injection, vehicle: saline with Tween-80.
Setting [2] is: dose: 37.5 mg/kg/injection, vehicle: saline with Tween-80.
Where [3] appears, read: dose: 75.0 mg/kg/injection, vehicle: saline with Tween-80.
[4] abbreviates: dose: 150.0 mg/kg/injection, vehicle: saline with Tween-80.
Setting [5] is: dose: 300.0 mg/kg/injection, vehicle: saline with Tween-80.
[6] abbreviates: dose: 25.0 mg/kg/injection, vehicle: saline with Tween-80.
The mark [7] stands for this setting: dose: 50.0 mg/kg/injection, vehicle: saline with Tween-80.
Where [8] appears, read: dose: 100.0 mg/kg/injection, vehicle: saline with Tween-80.
The mark [9] stands for this setting: dose: 12.5 mg/kg/injection, vehicle: water.
Setting [10] is: dose: 25.0 mg/kg/injection, vehicle: water.
The mark [11] stands for this setting: dose: 50.0 mg/kg/injection, vehicle: water.
Where [12] appears, read: dose: 25.0 mg/kg/injection, vehicle: saline.
[13] abbreviates: dose: 50.0 mg/kg/injection, vehicle: saline.
[14] abbreviates: dose: 50.0 mg/kg/injection, vehicle: Klucel (hydroxypropylcellulose) (HPC).
The mark [15] stands for this setting: dose: 200.0 mg/kg/injection, vehicle: saline with Tween-80.
The mark [16] stands for this setting: dose: 400.0 mg/kg/injection, vehicle: saline with Tween-80.

As for `CNc1ncn(-c2c(C)cccc2C)c(=O)n1`, the T/C is, setting by setting: (dose: 4.69 mg/kg/injection, vehicle: saline with Tween-80) 98 % of control; (dose: 9.38 mg/kg/injection, vehicle: saline with Tween-80) 109 % of control; under setting [1], 110 % of control; under setting [2], 109 % of control; under setting [3], 100 % of control and 105 % of control and 115 % of control; under setting [4], 99 % of control. In addition, the T/C was 100 % of control under setting [5] and 99 % of control (dose: 600.0 mg/kg/injection, vehicle: saline with Tween-80).
Regarding `c1ccc(P(CCNCCP(c2ccccc2)c2ccccc2)c2ccccc2)cc1`, the T/C reads like this: under setting [6], 88 % of control; under setting [7], 92 % of control; under setting [8], 90 % of control.
Consider `Nc1nc2ncn(O)c2c(=O)[nH]1`, for which the T/C (dose: 3.12 mg/kg/injection, vehicle: water) was 100 % of control; the T/C (dose: 6.25 mg/kg/injection, vehicle: water) is 100 % of control; the T/C under setting [9] was 97 % of control; the T/C under setting [10] was 93 % of control; the T/C under setting [11] is 101 % of control.
Regarding `CCOP(=S)(OCC)OC(=O)C(C)SSC` (stereo unspecified) (tested in a mixture with another compound), the T/C under setting [2] is 96 % of control, the T/C under setting [3] was 99 % of control and the T/C under setting [4] was 88 % of control.
For the compound `S=c1sc(-c2ccc(Cl)cc2)nn1CSc1nc2ccccc2o1`, the T/C runs as follows: under setting [2], 86 % of control; under setting [5], 94 % of control.
With `Cc1ccc(C2=CSC3=NCCN23)cc1Cl`, the T/C is 103 % of control (dose: 3.0 mg/kg/injection, vehicle: saline); 107 % of control (dose: 6.0 mg/kg/injection, vehicle: saline); 104 % of control (dose: 12.0 mg/kg/injection, vehicle: saline); 100 % of control (dose: 24.0 mg/kg/injection, vehicle: saline); 104 % of control under setting [12]; 96 % of control under setting [13].
Consider `[Cl][Pt][Cl].[NH-]C(CO)C(=O)O` (stereo unspecified), for which the T/C reads like this: under setting [9], 97 % of control; under setting [10], 111 % of control; under setting [11], 111 % of control.
As for `CCOP1(OCC)(SSC)OC(=O)C(C)S1` (stereo unspecified), the T/C is, setting by setting: under setting [1], 92 % of control; under setting [2], 88 % of control; under setting [3], 98 % of control.
As to `CCCCCCCCCCCCN1C(C)=CS/C1=C\C=C\c1scc(C)[n+]1CCCCCCCCCCCC`, the T/C is 119 % of control (dose: 0.75 mg/kg/injection, vehicle: saline with Tween-80) and 116 % of control (dose: 1.5 mg/kg/injection, vehicle: saline with Tween-80).
`Cn1c2ccccc2c2ccc3c(c21)C(=O)C=CC3=O`: the T/C runs as follows: (dose: 25.0 mg/kg/injection, vehicle: Klucel (hydroxypropylcellulose) (HPC)) 93 % of control; under setting [14], 98 % of control.
For `CCOc1cc2c(cc1C(C)c1ccc(OC)cc1)OCO2` (stereo unspecified), the T/C runs as follows: (dose: 50.0 mg/kg/injection, vehicle: distilled water + alcohol) 119 % of control; (dose: 100.0 mg/kg/injection, vehicle: distilled water + alcohol) 110 % of control; (dose: 200.0 mg/kg/injection, vehicle: distilled water + alcohol) 123 % of control.
Regarding `O=C(Nc1ccccc1O)C1C(=O)C(=O)N(c2ccccc2O)C1=O` (stereo unspecified), the T/C was 106 % of control under setting [7]; 103 % of control under setting [8]; 100 % of control under setting [15]; 100 % of control under setting [16]; 95 % of control (dose: 800.0 mg/kg/injection, vehicle: saline with Tween-80).
In the case of `CN=C(N)N/N=C(\C)c1ccc2sc3ccc(/C(C)=N/NC(N)=NC)cc3c2c1`, the T/C under setting [6] was 113 % of control.
Regarding `N#Cc1c(-c2ccc(F)cc2)c(-c2ccc(F)cc2)nn(CCO)c1=O`, the T/C runs as follows: (dose: 12.5 mg/kg/injection, vehicle: distilled water + Tween-80) 96 % of control and 106 % of control; (dose: 25.0 mg/kg/injection, vehicle: distilled water + Tween-80) 101 % of control and 102 % of control; (dose: 50.0 mg/kg/injection, vehicle: distilled water + Tween-80) 106 % of control and 111 % of control; (dose: 72.0 mg/kg/injection, vehicle: distilled water + Tween-80) 103 % of control; (dose: 100.0 mg/kg/injection, vehicle: distilled water + Tween-80) 120 % of control and 124 % of control; (dose: 120.0 mg/kg/injection, vehicle: distilled water + Tween-80) 115 % of control. For the same compound, the T/C (dose: 200.0 mg/kg/injection, vehicle: distilled water + Tween-80) was 123 % of control; the T/C (dose: 333.0 mg/kg/injection, vehicle: distilled water + Tween-80) is 150 % of control; the T/C (dose: 555.0 mg/kg/injection, vehicle: distilled water + Tween-80) is 153 % of control.
For `CCOC(=O)c1c(C(=O)OC)nc2n1-c1ccccc1OC2`, the T/C was 100 % of control (dose: 31.25 mg/kg/injection, vehicle: saline with Tween-80); 103 % of control (dose: 62.0 mg/kg/injection, vehicle: saline with Tween-80); 100 % of control (dose: 125.0 mg/kg/injection, vehicle: saline with Tween-80); 88 % of control (dose: 250.0 mg/kg/injection, vehicle: saline with Tween-80); 96 % of control (dose: 500.0 mg/kg/injection, vehicle: saline with Tween-80).
Take `CN1C(=O)OC(c2ccc(Cl)cc2)C1=O` (stereo unspecified): the T/C runs as follows: under setting [14], 92 % of control; (dose: 100.0 mg/kg/injection, vehicle: Klucel (hydroxypropylcellulose) (HPC)) 93 % of control; (dose: 200.0 mg/kg/injection, vehicle: Klucel (hydroxypropylcellulose) (HPC)) 94 % of control; (dose: 400.0 mg/kg/injection, vehicle: Klucel (hydroxypropylcellulose) (HPC)) 97 % of control.
In the case of `Cc1c(/C=C/C(=O)O)no[n+]1[O-]`, the T/C runs as follows: under setting [6], 100 % of control; under setting [7], 101 % of control; under setting [8], 101 % of control; under setting [15], 101 % of control; under setting [16], 93 % of control.
`CC(C)(C)CCC(Br)CBr` (stereo unspecified): the T/C by setting is: (dose: 3.12 mg/kg/injection, vehicle: saline) 98 % of control; (dose: 3.12 mg/kg/injection, vehicle: suspension in saline) 95 % of control; (dose: 6.25 mg/kg/injection, vehicle: saline) 102 % of control; (dose: 6.25 mg/kg/injection, vehicle: suspension in saline) 97 % of control; (dose: 12.5 mg/kg/injection, vehicle: saline) 99 % of control; (dose: 12.5 mg/kg/injection, vehicle: suspension in saline) 99 % of control. In addition, the T/C runs as follows: under setting [12], 100 % of control; under setting [13], 100 % of control; (dose: 50.0 mg/kg/injection, vehicle: suspension in saline) 100 % of control and 106 % of control; (dose: 100.0 mg/kg/injection, vehicle: suspension in saline) 111 % of control; (dose: 200.0 mg/kg/injection, vehicle: suspension in saline) 106 % of control; (dose: 400.0 mg/kg/injection, vehicle: suspension in saline) 93 % of control.
